Consider three molecules from publication PMC6375636, “Monotherapy with a low-dose lipopeptide HIV fusion inhibitor maintains long-term viral suppression in rhesus macaques” (PLoS Pathogens, 2019).

Peptide text beside a SMILES is read from it. * marks the point of attachment. Stearoyl = CCCCCCCCCCCCCCCCCC(=O)*

In one data set the target is T1, HIV-1HXB2 Env (Human immunodeficiency virus type 1 group M subtype B, UniProt P04578).
T1 construct: HL2/3 cells, which stably express high levels of Env, Gag, Tat, Rev, and Nef proteins of the integrated HIV-1 molecular clone HXB2/3gpt; host or cells: HL2/3 cells (effector), cocultured with TZM-bl target cells
Description: HIV-1HXB2 Env-mediated cell-cell fusion (HL2/3 effector, TZM-bl target, luciferase reporter). Type of data set: cell-based. How it is done:
The inhibitory activities of inhibitors on HIV-1HXB2 Env-mediated cell-cell fusion were determined by a reporter gene assay based on the activation of an HIV LTR-driven luciferase cassette in TZM-bl cells (target) by HIV-1 tat from HL2/3 cells (effector). Briefly, 1 x 10^4/well of TZM-bl cells were plated in 96-well plates and incubated at 37°C overnight. Then, 3 x 10^4/well of HL2/3 cells were cocultured with target cells for 6 h at 37°C in the presence or absence of an inhibitor at graded concentrations. Luciferase activity was measured using luciferase assay reagents and a Luminescence Counter (Promega, Madison, Wisconsin, USA).
(Reporter assays use an easily measured gene product as a stand-in for the process of interest.)

Data set [1] deals with HIV-1NL4-3(D36G) pseudovirus. Type of data set: cell-based. As to conditions: Fig 1; NL4-3(D36G) pseudovirus; mean ± SD of three assays in triplicate; read-out: Anti-HIV activity (IC50, pM) NL4-3 entry. As to the method: The inhibitory activities of inhibitors against HIV-1 pseudoviruses and replication-competent isolates were measured as described previously. Briefly, HIV-1 pseudoviruses were generated via the cotransfection of HEK293T cells with an Env-expressing plasmid and a backbone plasmid that encodes Env-defective, luciferase-expressing HIV-1 genome (pSG3Δenv). Viral stocks of replication-competent HIV-1 isolates were generated by transfecting viral molecular clones into HEK293T cells. […] Inhibitors were prepared in 3-fold dilutions, mixed with 100 TCID50 of a virus, and then incubated for 1 h at room temperature. […] Luciferase activity was measured as described above.

The target of another data set is HIV-1JRCSF. It counts as cell-based. As to conditions: Fig 1; replication-competent virus; mean ± SD of three assays in triplicate; read-out: Anti-HIV activity (IC50, pM) JRCSF infection. How it is done: The inhibitory activities of inhibitors against HIV-1 pseudoviruses and replication-competent isolates were measured as described previously. Briefly, HIV-1 pseudoviruses were generated via the cotransfection of HEK293T cells with an Env-expressing plasmid and a backbone plasmid that encodes Env-defective, luciferase-expressing HIV-1 genome (pSG3Δenv). Viral stocks of replication-competent HIV-1 isolates were generated by transfecting viral molecular clones into HEK293T cells. Culture supernatants were harvested at 48 h posttransfection, and 50% tissue culture infectious doses (TCID50) in TZM-bl cells were determined. Inhibitors were prepared in 3-fold dilutions, mixed with 100 TCID50 of a virus, and then incubated for 1 h at room temperature. The mixture was added to TZM-bl cells (10^4/well), and the cells were incubated for additional 48 h at 37°C. Luciferase activity was measured as described above.

Data set [2] addresses T2, gp41 NHR-derived target mimic peptide N39 (Human immunodeficiency virus type 1 group M subtype B, UniProt P04578).
T2 construct: the gp41 NHR-derived target mimic peptide N39
Description: CD spectroscopy of lipopeptides in complex with target mimic peptide N39. Type of data set: binding, HIV-1. As to conditions: complex with N39, each peptide 10 μM in PBS; representative of 2 assays. More on the design: [θ]222: unit not given here. An excerpt: Spectra were corrected by subtracting a solvent blank.

For data set [3] the following is noted: lipopeptide alone, 10 μM in PBS; [θ]222 / -33,000; representative of 2 assays.

T1 sequence (P04578 512-856): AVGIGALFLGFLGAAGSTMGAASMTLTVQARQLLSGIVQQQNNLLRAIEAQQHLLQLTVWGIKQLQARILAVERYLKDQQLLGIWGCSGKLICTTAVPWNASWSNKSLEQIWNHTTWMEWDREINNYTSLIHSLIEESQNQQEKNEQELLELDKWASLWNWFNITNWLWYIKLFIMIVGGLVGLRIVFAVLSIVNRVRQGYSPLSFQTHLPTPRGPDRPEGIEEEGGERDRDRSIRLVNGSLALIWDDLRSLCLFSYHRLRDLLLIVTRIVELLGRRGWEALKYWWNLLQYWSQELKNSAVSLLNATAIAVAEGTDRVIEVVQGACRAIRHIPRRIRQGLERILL
T2 sequence (P04578 528-566): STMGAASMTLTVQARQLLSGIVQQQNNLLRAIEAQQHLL

In general, IC50 refers to the concentration at which inhibition is half-maximal. In the case of `CCCCCCCCCCCCCCCCCC(=O)NCCCC[C@H](NC(=O)[C@H](CCC(=O)O)NC(=O)[C@H](CC(C)C)NC(=O)[C@H](CCCCN)NC(=O)[C@H](CCCCN)NC(=O)[C@H](CC(C)C)NC(=O)[C@H](CCC(=O)O)NC(=O)[C@H](CCC(=O)O)NC(=O)[C@H](CCC(=O)O)NC(=O)[C@H](CC(N)=O)NC(=O)[C@H](CCCCN)NC(=O)[C@H](CCCCN)NC(=O)[C@H](CCC(N)=O)NC(=O)[C@H](CCC(N)=O)NC(=O)[C@H](CCC(=O)O)NC(=O)[C@H](CCC(=O)O)NC(=O)[C@H](C)NC(=O)[C@H](CCCCN)NC(=O)[C@H](CCCCN)NC(=O)[C@H](CC(C)C)NC(=O)[C@H](CC(C)C)NC(=O)[C@H](CCC(=O)O)NC(=O)[C@H](CCC(=O)O)NC(=O)[C@@H](NC(=O)[C@H](CCCCN)NC(C)=O)[C@@H](C)CC)C(N)=O` [LP-89] (Ac-KIEELLKKAEEQQKKNEEELKKLEK(Stearoyl)-NH2), the IC50 against HIV-1HXB2 Env was determined as 0.0733 ± 0.021 nM; in data set [1], 10.8 ± 3.14 pM; on HIV-1JRCSF, 12.4 ± 1.22 pM. For the same molecule, the “Helix content (%)” value in data set [2] is 51%; in data set [3], 43%. Moreover, the “[θ]222” value in data set [2] is on record as -16781.

As for `CCCCCCCCCCCCCCCCCC(=O)NCCCC[C@H](NC(=O)[C@H](CCCCN)NC(=O)[C@H](CC(C)C)NC(=O)[C@H](CCC(=O)O)NC(=O)[C@H](CCC(=O)O)NC(=O)[C@H](CCC(=O)O)NC(=O)[C@H](CC(N)=O)NC(=O)[C@H](CCCCN)NC(=O)[C@H](CCCCN)NC(=O)[C@H](CCC(N)=O)NC(=O)[C@H](CCC(N)=O)NC(=O)[C@H](CCC(=O)O)NC(=O)[C@H](CCC(=O)O)NC(=O)[C@H](C)NC(=O)[C@H](CCCCN)NC(=O)[C@H](CCCCN)NC(=O)[C@H](CC(C)C)NC(=O)[C@H](CC(C)C)NC(=O)[C@H](CCC(=O)O)NC(=O)[C@H](CCC(=O)O)NC(=O)[C@@H](NC(=O)[C@H](CCCCN)NC(=O)[C@H](CCC(N)=O)NC(=O)[C@H](CCC(=O)O)NC(=O)[C@H](Cc1c[nH]c2ccccc12)NC(C)=O)[C@@H](C)CC)C(N)=O` [LP-91] (Ac-WEQKIEELLKKAEEQQKKNEEELKK(Stearoyl)-NH2), the half-maximal inhibitory concentration (IC50) against HIV-1HXB2 Env amounted to 0.0131 ± 0.00125 nM; in data set [1] it was 7.33 ± 0.49 pM; on HIV-1JRCSF, 11.1 ± 2.13 pM. Besides, the “Helix content (%)” value in data set [2] is reported as 55%; in data set [3], 42%. Moreover, in data set [2], the “[θ]222” value is -18156.

In the case of `CCCCCCCCCCCCCCCCCC(=O)NCCCC[C@H](NC(=O)[C@H](CCCCN)NC(=O)[C@H](CC(C)C)NC(=O)[C@H](CCC(=O)O)NC(=O)[C@H](CCC(=O)O)NC(=O)[C@H](CCC(=O)O)NC(=O)[C@H](CC(N)=O)NC(=O)[C@H](CCCCN)NC(=O)[C@H](CCCCN)NC(=O)[C@H](CCC(N)=O)NC(=O)[C@H](CCC(N)=O)NC(=O)[C@H](CCC(=O)O)NC(=O)[C@H](CCC(=O)O)NC(=O)[C@H](C)NC(=O)[C@H](CCCCN)NC(=O)[C@H](CCCCN)NC(=O)[C@H](CC(C)C)NC(=O)[C@H](CC(C)C)NC(=O)[C@H](CCC(=O)O)NC(=O)[C@H](CCC(=O)O)NC(=O)[C@@H](NC(C)=O)[C@@H](C)CC)C(N)=O` [LP-92] (Ac-IEELLKKAEEQQKKNEEELKK(Stearoyl)-NH2), the figures for the IC50 (on HIV-1HXB2 Env; in data set [1]; on HIV-1JRCSF) were 0.189 ± 0.0199 nM, 168 ± 20.6 pM and 229 ± 28.4 pM, respectively. Further, the “Helix content (%)” value stood at 38% in data set [2] and 16% in data set [3]. The “[θ]222” value in data set [2] is recorded as -12476.
